Assay results published in paper PMC7822874, “Chemoprotective antimalarials identified through quantitative high-throughput screening of Plasmodium blood and liver stage parasites” (Scientific Reports, 2021).
Like-named read-outs stand apart in the source and are kept apart here.

System: Plasmodium falciparum Dd2 asexual blood stage parasites
Assay: microbe, parasite or virus in culture
Set-up: species or system Plasmodium falciparum Dd2 in human erythrocytes; single determination (one 11-point concentration-response curve)
Conditions: Plasmodium falciparum, DD2, Erythrocyte, 72 h

Row | SMILES | AC50 (read-out: AC50) [µM] | AC50 [µM]
1 | CCOc1cc(C(=O)N2CCC(CC3CC(c4ccc(Cl)cc4)=NO3)(C(=O)NCC3CCCCC3)CC2)cc(OCC)c1OCC (centres unmarked) [MLS001143937-01] | 0.841 | 
2 | Cc1onc(-c2ccc(Cl)cc2)c1-c1ccnn1S(=O)(=O)c1cccc(C(F)(F)F)c1 [MLS001111123-01] | 4.73 | 
3 | COc1ccc2nc3oc(C(=O)N4CC(C)CC(C)C4)cc3cc2c1 (centres unmarked) [MLS000912759-01] | 8.41 | 
4 | CCc1nc(NC(=O)C2c3ccccc3C(=O)N(CCOC)C23CCCC3)sc1C (centres unmarked) [NCGC00423528-01] | 5.96 | 
5 | CC(C)c1ccc(C2c3[nH]c4ccccc4c3C[C@H]3C(=O)N(c4ccccc4C(=O)N4CCC(C(=O)O)CC4)C(=O)N23)cc1 (some centres unmarked) [MLS001140664-01] | 6.68 | 
6 | CCOC(=O)c1[nH]c(C)c(CCC(=O)N2CCN(c3cc(C)ccc3C)CC2)c1C [NCGC00134586-01] | 1.33 | 
7 | COc1ccc([S+](=O)([O-])NC[C@H]2C[C@@H]3CC[N@]2C[C@@H]3CN(C)Cc2ccccc2)cc1 [NCGC00400093-01] | 4.73 | 
8 | COc1cc2c(cc1OC1CCCC1)NC(=O)C21CCN(C(=O)c2cccc(C#N)c2)CC1 [NCGC00416876-01] | 8.41 | 
9 | COc1cc2nc(NCc3ccccc3)n3nc(-c4ccccc4)nc3c2cc1OC [NCGC00112829-01] | 0.422 | 
10 | CCCCCC(O)(c1ccc(OC)cc1)C(CN1CCOCC1)c1ccccc1 (centres unmarked) [MLS001198946-01] | 2.11 | 
11 | Cc1ccccc1NC(=O)c1c(C)oc2ccc(O)c(CN(C)Cc3ccccc3)c12 [NCGC00115709-01] | 2.37 | 
12 | Cc1cccc(C)c1-n1ncc(C(=O)NCCCN2CCC(C)CC2)c1C1CCN(C(=O)OC(C)(C)C)CC1 [NCGC00127064-01] | 15 | 
13 | COc1ccc2[nH]c(C)c(CCN(Cc3cccs3)C(S)=Nc3ccc(F)cc3)c2c1 [MLS000529849-01] | 4.22 | 
14 | COc1cc2nc(SCc3ccc(F)cc3)n3nc(CCn4c(C)nc5ccccc54)nc3c2cc1OC [NCGC00108638-01] | 2.99 | 
15 | O=C(CN(C(=O)c1cccc([N+](=O)[O-])c1)C1CCCCC1)Nc1ccc(Cl)c([N+](=O)[O-])c1 [MLS000560351-01] |  | 13.3
16 | COc1ccc(-c2c(C#Cc3ccsc3)c3cc(-c4cccc5[nH]ccc45)ccc3n2C)cc1 [MLS002391587-01] | 6.68 | 
17 | CC(C)N1CC=C(c2c[nH]c3ccccc23)CC1 [MLS000093714-01] | 10.6 | 
18 | Cc1ccc(NC(=O)Cn2c(=O)n(-c3ccc(C)cc3)c(=O)c3ccc(C(=O)NCc4ccccc4Cl)cc32)cc1 [NCGC00108700-01] | 5.31 | 
19 | COc1cc(C2NCc3ccccc3-n3cccc32)ccc1O (centres unmarked) [MLS000047988-01] | 2.66 | 
20 | CCOC(=O)C1=Nc2ccccc2C1=[N+]=[N-] [MLS000079382-01] | 4.22 | 
21 | CC(=O)Nc1cccc(OCc2nnc(C(=O)N3CCC[C@@H]3C(c3ccccc3)c3ccccc3)n2-c2ccccc2)c1 [NCGC00415783-01] | 10.6 | 
22 | COc1ccc(-c2cc(C[C@@H]3CC[C@H](O)[C@@H](CNCc4ccccc4OC)O3)no2)cc1 [NCGC00421057-01] | 3.44 | 
23 | COc1ccc(OC)c([S+](=O)([O-])NC[C@H]2C[C@@H]3CCN2C[C@@H]3c2cc(-c3ccc(F)cc3)nn2C)c1 [NCGC00420960-01] | 6.68 | 
24 | COc1cc2c(cc1OC1CCCC1)NC(=O)C21CCN(c2cnccn2)CC1 [NCGC00416906-01] | 7.69 | 
25 | O=C(NCCC1=CCCCC1)c1ccc2c(=O)n3nc(Nc4ccccc4)sc3nc2c1 [NCGC00138829-01] | 4.73 | 
26 | CC(C)CNC(=O)CN1CN(c2ccccc2)C2(CCN(C(=O)NC3CCCCC3)CC2)C1=O [NCGC00473208-01] | 15 | 

Row | SMILES | AC50 (read-out: AC50) [µM] | AC50 [µM]
27 | COc1ccc(-c2csc3ncnc(N4CCN(S(=O)(=O)c5ccc(C(C)=O)cc5)CC4)c23)cc1 [MLS001160708-01] | 4.22 | 
28 | Cc1cc2c(c3oc(=O)c4ccccc4c13)CN(Cc1ccc(F)cc1)CO2 [NCGC00116338-01] | 2.66 | 
29 | COCCCNC(=O)C1(C)CN(C)Cc2ccc(Nc3ccccc3)nc21 (centres unmarked) [NCGC00414477-01] | 6.85 | 
30 | COc1cccc(NC(=O)c2sc3nc(C)c(C(=O)Nc4ccc(C)cc4C)c(-c4ccccc4Cl)c3c2N)c1 [NCGC00104946-01] | 2.66 | 
31 | Cc1ccccc1CN1C(=O)C(C)N=C(c2ccccc2)c2ccccc21 (centres unmarked) [NCGC00140509-01] |  | 15
32 | Cc1ccc(NC(=O)c2c(C)oc3ccc(O)c(CN(C)Cc4ccccc4)c23)c(C)c1 [NCGC00115687-01] | 5.96 | 
33 | COC(=O)c1cc(O)cc(OC)c1Oc1cc(C)cc(O)c1C(=O)O [MLS000863583-01] | 4.22 | 
34 | CCOC(=O)c1ccc2c(c1)N(CC(=O)N(C)c1ccccc1)C(=O)c1ccccc1S2 [NCGC00132027-01] | 10.6 | 
35 | CCc1ccc(Oc2c(C(F)(F)F)oc3c(CN4CCCC(C)C4)c(O)ccc3c2=O)cc1 (centres unmarked) [NCGC00101514-01] | 1.33 | 
36 | COc1ccc(NC(=O)c2ccc(-c3nnc4ccc(NC(=O)C5CCC5)cn34)cc2)cc1 [NCGC00429884-01] | 4.22 | 
37 | O=C1CC(c2ccccc2)N(Cc2ccncc2)CCCN([S+](=O)([O-])c2cccc(F)c2)CCN1 (centres unmarked) [NCGC00467202-01] | 4.73 | 
38 | COc1ccc(NC(=O)c2nnn3c2CN(Cc2cccc(Cl)c2)C(=O)CC3)c(C)c1 [NCGC00415347-01] | 2.17 | 
39 | COc1cccc(CN2CCC(N3CC(OCC4CC4)C34CCCCC4)CC2)n1 (centres unmarked) [NCGC00463412-01] | 4.22 | 
40 | COc1ccc(CN2CC(Oc3ccccc3C(=O)NCc3ccccc3)C2)c(OC)c1 [NCGC00458086-01] | 10.6 | 
41 | C[N+](C)(C)CCN(Cc1ccc(Cl)cc1)c1ccccn1 [MLS000556881-01] | 9.44 | 
42 | Cc1ccc(Cl)cc1N1CCN(C(=O)c2cn(CC(C)C)c(=O)c3c2c2ccccc2n3C)CC1 [NCGC00106023-01] | 3.35 | 
43 | C/C=C/c1cc(CN2CCN(c3ccccc3)CC2)c(O)c(OC)c1 [MLS001002110-01] | 5.96 | 
44 | Cn1nc(C2CCCCC2)cc1[C@H]1CN2CC[C@H]1C[C@@H]2CNC(=O)COc1ccccc1 [NCGC00399666-01] | 15 | 
45 | COc1ccccc1C1CC(c2ccccc2)=NN1C(=O)c1ccccc1 (centres unmarked) [MLS001197331-01] | 2.37 | 
46 | O=C(NCCc1ccncc1)c1ccc(-c2nnc3ccc(NC(=O)C4CCC4)cn23)cc1 [NCGC00429902-01] | 2.99 | 
47 | O=C1N=C(NC2CCCC2)C2(CCN(Cc3ccc(F)cc3)C2)N1c1cc(F)cc(F)c1 (centres unmarked) [NCGC00374305-01] | 10.6 | 
48 | CC1CCN(C(=O)CSc2nc(-c3ccc(C(C)C)cc3)no2)CC1 [NCGC00127906-01] | 1.19 | 
49 | CCOc1ccccc1NC(=O)C1CCN([S+](=O)([O-])c2c(C)noc2/C=C/c2ccco2)CC1 [NCGC00109315-01] | 15 | 
50 | COc1ccc(S(=O)(=O)N2CCCCCC2)cc1NC(=O)c1c2c(nc3ccccc13)CCN(Cc1ccccc1)C2 [MLS000393062-01] | 4.73 | 
51 | CC(C)CCN1CCn2c(nn(-c3ccc([N+](=O)[O-])cc3)c2=O)C1 [NCGC00479600-01] | 17.2 | 
52 | O=C(NCc1ccco1)c1cc(-c2ccncc2)nc2ccccc12 [MLS000046192-01] | 5.96 | 

Row | SMILES | AC50 (read-out: AC50) [µM] | AC50 [µM]
53 | Cc1ccc(C)c(N2CCN(C(=O)c3cc([S+](=O)([O-])N4CCCCCC4)cn3C)CC2)c1 [NCGC00132413-01] | 10.6 | 
54 | COc1ccc(CC(=O)N2CCC(Oc3ncccc3C(=O)N3CCCCC3)C2)cc1 (centres unmarked) [NCGC00434230-01] | 9.44 | 
55 | COC1CN(c2ccc(C)cc2)C12CCN(C(=O)CCc1nc3ccccc3s1)CC2 (centres unmarked) [NCGC00465628-01] | 10.6 | 
56 | COc1ccc(-c2noc(-c3cccn3CC(=O)Nc3ccccc3C)n2)cc1F [NCGC00445484-01] | 5.31 | 
57 | COc1cc2c(cc1OC)C(COc1ccc3c(C)cc(=O)oc3c1)N(C(=O)c1ccccc1C)CC2 (centres unmarked) [NCGC00104945-01] | 15 | 
58 | CCOC(=O)c1c(C)oc2nc(C)nc(Nc3ccc(CC)cc3)c12 [NCGC00126813-01] | 7.5 | 
59 | Cc1oc2ccc(O)c(CN3CCCCCC3)c2c1C(=O)Nc1cccc(Cl)c1C [NCGC00115685-01] | 0.841 | 
60 | COc1cccc(CN2CCC3(CC2)OC(=O)N(Cc2ccccc2)C3(C)c2ccccc2)c1 (centres unmarked) [NCGC00415605-01] | 15 | 
61 | O=C1NCc2ccccc2CC12CCCN(CC1=CCCCC1)C2 (centres unmarked) [NCGC00377566-01] | 3.31 | 
62 | COc1ccc(Nc2cc(C)c3cc(NC(=O)Cc4c(F)cccc4Cl)ccc3n2)cc1 [NCGC00124312-01] | 5.31 | 
63 | COC(=O)c1ccc(Nc2nnc(-c3ccc(C)c([S+](=O)([O-])N4CCN(C)CC4)c3)c3ccccc23)cc1 [NCGC00099996-01] | 8.41 | 
64 | CN(C)CC1CSCCC1(O)c1ccccc1Cl (centres unmarked) [MLS000546783-01] | 5.96 | 
65 | Cc1ccc(CSC2=Nc3ccccc3C3=NC(CC(=O)NCc4ccco4)C(=O)N23)cc1 (centres unmarked) [MLS000094891-01] | 6.68 | 
66 | COCCNC(=O)c1ccc(OC2CCN(C/C=C/c3ccc(F)cc3)CC2)c(Cl)c1 [NCGC00426935-01] | 10.6 | 
67 | CN1CCN(C(=O)C2(N(C)CCc3ccccc3)Cc3ccccc3C2)CC1 [NCGC00438807-01] | 2.66 | 
68 | O=C(NCc1ccc(N2CCCC2)cc1)C1CCCN(c2cnn(Cc3ccccc3)c(=O)c2)C1 (centres unmarked) [NCGC00470327-01] | 10.6 | 
69 | CC(C)N1CCC2(CC1)CN(C(=O)Cc1cccc(F)c1)Cc1ccccc1O2 [NCGC00456475-01] | 15 | 
70 | COc1ccc(-c2cc(C(=O)NCc3c(C)cc(C)[nH]c3=O)c3c(c2)N(C)CCO3)cn1 [NCGC00417013-01] | 19.3 | 
71 | Cc1oc(-c2ccc(Cl)cc2)nc1Cn1c(=O)cc(-c2ccccc2)c2c(C)nn(C)c21 [NCGC00130157-01] | 9.44 | 
72 | CC(C)(C)c1ccc(CN(Cc2ccccc2)C(c2ccccn2)c2nnnn2C(C)(C)C)cc1 (centres unmarked) [MLS000529130-01] | 4.73 | 
73 | CCCN(CCC)CC(O)Cn1cc(/C=C/C(=O)c2ccc(C)cc2)c2ccccc21 (centres unmarked) [NCGC00114909-01] | 4.73 | 
74 | CC1CCN(CC2CCCCCN2C(=O)NCc2ccc(F)cc2)CC1 (centres unmarked) [NCGC00456722-01] | 13.3 | 
75 | COc1cccc(/C=C/C(=O)Nc2ccc3nc(N4CCN(C)CC4)cc(C)c3c2)c1OC [NCGC00104449-01] | 5.96 | 
76 | Cc1ccc(CN2COc3ccc4c(-c5ccccc5)cc(=O)oc4c3C2)cc1 [NCGC00116312-01] | 0.841 | 
77 | CCN(CC)CCCNC(=O)c1nn(-c2ccc(OC)c(Cl)c2)c(=O)c2c1c1ccccc1n2C [NCGC00108872-01] | 10.6 | 
